Assay results from ChEMBL document CHEMBL3044811, “Efficacy of grain protectants against four psocid species on maize, rice and wheat” (2009).
Activity calls are given as the source filed them. The rule behind the calls is not given here.

Assays:
Liposcelis entomophila [1] = assay: Insecticidal activity against Liposcelis entomophila in compound pre-treated maize grains assessed as mortality at 1 ppm after 14 days (reference value: 14.4 +/-4.1%); assay type: functional
[2] = tested on: Liposcelis bostrychophila; assay: Insecticidal activity against Liposcelis bostrychophila (booklice) in compound pre-treated wheat grains assessed as effect on progeny production at 1 ppm after 30 days; assay type: functional, organism-based
[3] = tested on: Liposcelis bostrychophila; assay: Insecticidal activity against Liposcelis bostrychophila (booklice) in compound pre-treated rice grains assessed as mortality at 1 ppm after 7 days (reference value: 8.9 +/-4.5%); assay type: functional
Liposcelis entomophila [4] = assay: Insecticidal activity against Liposcelis entomophila in compound pre-treated wheat grains assessed as mortality at 1 ppm after 7 days (reference value: 5.6 +/-2.9%); assay type: functional
Lepinotus reticulatus [5] = assay: Insecticidal activity against Lepinotus reticulatus in compound pre-treated rice grains assessed as mortality at 1 ppm after 14 days (reference value: 15.5 +/-4.1%); assay type: functional
Liposcelis entomophila [6] = assay: Insecticidal activity against Liposcelis entomophila in compound pre-treated rice grains assessed as mortality at 1 ppm after 14 days (reference value: 10.0 +/-4.7%); assay type: functional
[7] = tested on: Liposcelis bostrychophila; assay: Insecticidal activity against Liposcelis bostrychophila (booklice) in compound pre-treated maize grains assessed as mortality at 1 ppm after 7 days (reference value: 8.9 +/-2.6%); assay type: functional
Liposcelis paeta [8] = assay: Insecticidal activity against Liposcelis paeta in compound pre-treated rice grains assessed as mortality at 1 ppm after 14 days (reference value: 3.4 +/-1.6%); assay type: functional
[9] = tested on: Liposcelis bostrychophila; assay: Insecticidal activity against Liposcelis bostrychophila (booklice) in compound pre-treated wheat grains assessed as mortality at 1 ppm after 7 days (reference value: 3.3 +/-1.7%); assay type: functional
[10] = tested on: Liposcelis bostrychophila; assay: Insecticidal activity against Liposcelis bostrychophila (booklice) in compound pre-treated maize grains assessed as decrease in progeny production at 1 ppm after 30 days; assay type: functional, organism-based
Lepinotus reticulatus [11] = assay: Insecticidal activity against Lepinotus reticulatus in compound pre-treated rice grains assessed as mortality at 1 ppm after 7 days (reference value: 6.8 +/-2.4%); assay type: functional
[12] = tested on: Liposcelis bostrychophila; assay: Insecticidal activity against Liposcelis bostrychophila (booklice) in compound pre-treated maize grains assessed as mortality at 1 ppm after 14 days (reference value: 13.5 +/-5.3%); assay type: functional
Liposcelis paeta [13] = assay: Insecticidal activity against Liposcelis paeta in compound pre-treated maize grains assessed as effect on progeny production at 1 ppm after 30 days; assay type: functional, organism-based
Liposcelis entomophila [14] = assay: Insecticidal activity against Liposcelis entomophila in compound pre-treated wheat grains assessed as mortality at 1 ppm after 14 days (reference value: 13.3 +/-4.7%); assay type: functional
Liposcelis entomophila [15] = assay: Insecticidal activity against Liposcelis entomophila in compound pre-treated wheat grains assessed as decrease in progeny production at 1 ppm after 30 days; assay type: functional, organism-based
Liposcelis entomophila [16] = assay: Insecticidal activity against Liposcelis entomophila in compound pre-treated maize grains assessed as decrease in progeny production at 1 ppm after 30 days; assay type: functional, organism-based
Liposcelis entomophila [17] = assay: Insecticidal activity against Liposcelis entomophila in compound pre-treated maize grains assessed as mortality at 1 ppm after 7 days (reference value: 15.6 +/-6.9%); assay type: functional
Liposcelis entomophila [18] = assay: Insecticidal activity against Liposcelis entomophila in compound pre-treated rice grains assessed as mortality at 1 ppm after 7 days (reference value: 3.3 +/-2.6%); assay type: functional
Lepinotus reticulatus [19] = assay: Insecticidal activity against Lepinotus reticulatus in compound pre-treated maize grains assessed as decrease in progeny production at 1 ppm after 30 days; assay type: functional, organism-based
[20] = tested on: Liposcelis bostrychophila; assay: Insecticidal activity against Liposcelis bostrychophila (booklice) in compound pre-treated wheat grains assessed as mortality at 1 ppm after 14 days (reference value: 6.8 +/-3.3%); assay type: functional
Lepinotus reticulatus [21] = assay: Insecticidal activity against Lepinotus reticulatus in compound pre-treated maize grains assessed as mortality at 1 ppm after 14 days (reference value: 61.1 +/-11.9%); assay type: functional
Liposcelis paeta [22] = assay: Insecticidal activity against Liposcelis paeta in compound pre-treated maize grains assessed as mortality at 1 ppm after 7 days (reference value: 13.3 +/-3.3%); assay type: functional
Lepinotus reticulatus [23] = assay: Insecticidal activity against Lepinotus reticulatus in compound pre-treated wheat grains assessed as mortality at 1 ppm after 7 days (reference value: 10.0 +/-5.3%); assay type: functional
[24] = tested on: Liposcelis bostrychophila; assay: Insecticidal activity against Liposcelis bostrychophila (booklice) in compound pre-treated rice grains assessed as effect on progeny production at 1 ppm after 30 days; assay type: functional, organism-based
Liposcelis paeta [25] = assay: Insecticidal activity against Liposcelis paeta in compound pre-treated wheat grains assessed as mortality at 1 ppm after 7 days (reference value: 7.8 +/-3.2%); assay type: functional
Lepinotus reticulatus [26] = assay: Insecticidal activity against Lepinotus reticulatus in compound pre-treated maize grains assessed as mortality at 1 ppm after 7 days (reference value: 34.4 +/-11.4%); assay type: functional
[27] = tested on: Liposcelis bostrychophila; assay: Insecticidal activity against Liposcelis bostrychophila (booklice) in compound pre-treated rice grains assessed as mortality at 1 ppm after 14 days (reference value: 9.7 +/-2.4%); assay type: functional
Lepinotus reticulatus [28] = assay: Insecticidal activity against Lepinotus reticulatus in compound pre-treated wheat grains assessed as decrease in progeny production at 1 ppm after 30 days; assay type: functional, organism-based
Lepinotus reticulatus [29] = assay: Insecticidal activity against Lepinotus reticulatus in compound pre-treated wheat grains assessed as mortality at 1 ppm after 14 days (reference value: 21.1 +/-7.4%); assay type: functional
Lepinotus reticulatus [30] = assay: Insecticidal activity against Lepinotus reticulatus in compound pre-treated rice grains assessed as decrease in progeny production at 1 ppm after 30 days; assay type: functional, organism-based
Liposcelis paeta [31] = assay: Insecticidal activity against Liposcelis paeta in compound pre-treated maize grains assessed as mortality at 1 ppm after 14 days (reference value: 14.1 +/-4.1%); assay type: functional
Liposcelis paeta [32] = assay: Insecticidal activity against Liposcelis paeta in compound pre-treated wheat grains assessed as mortality at 1 ppm after 14 days (reference value: 5.6 +/-1.8%); assay type: functional
Liposcelis paeta [33] = assay: Insecticidal activity against Liposcelis paeta in compound pre-treated rice grains assessed as mortality at 1 ppm after 7 days (reference value: 3.3 +/-1.7%); assay type: functional

For `CC[C@H]1CCC[C@H](O[C@H]2CC[C@H](N(C)C)[C@@H](C)O2)[C@@H](C)C(=O)C2=C[C@@H]3[C@@H](C=C(C)[C@@H]4C[C@@H](O[C@@H]5O[C@@H](C)[C@H](OC)[C@@H](OC)[C@H]5OC)C[C@@H]34)[C@@H]2CC(=O)O1.CC[C@H]1CCC[C@H](O[C@H]2CC[C@H](N(C)C)[C@@H](C)O2)[C@@H](C)C(=O)C2=C[C@@H]3[C@@H](C=C[C@@H]4C[C@@H](O[C@@H]5O[C@@H](C)[C@H](OC)[C@@H](OC)[C@H]5OC)C[C@@H]34)[C@@H]2CC(=O)O1`, the mortality at 1 ppm (Liposcelis entomophila [1]) was 98.9%, the inhibition [2] was “inactive” and the mortality at 1 ppm [3] was 48.9%. The mortality at 1 ppm (Liposcelis entomophila [4]) was 61.2%, the mortality at 1 ppm (Lepinotus reticulatus [5]) was 71.1% and the mortality at 1 ppm (Liposcelis entomophila [6]) was 52.3%. It also gave a mortality at 1 ppm [7] of 71.1%, a mortality at 1 ppm (Liposcelis paeta [8]) of 18.8% and a mortality at 1 ppm [9] of 74.5%. For the same compound, the inhibition [10] was “Active”, the mortality at 1 ppm (Lepinotus reticulatus [11]) was 80% and the mortality at 1 ppm [12] was 76.4%. The inhibition (Liposcelis paeta [13]) was “inactive”, the mortality at 1 ppm (Liposcelis entomophila [14]) was 84.4% and the inhibition (Liposcelis entomophila [15]) was “Active”. The inhibition (Liposcelis entomophila [16]) was “Active”, the mortality at 1 ppm (Liposcelis entomophila [17]) was 90% and the mortality at 1 ppm (Liposcelis entomophila [18]) was 52.2%. The inhibition (Lepinotus reticulatus [19]) was “Active”, the mortality at 1 ppm [20] was 75.6% and the mortality at 1 ppm (Lepinotus reticulatus [21]) was 100%. The mortality at 1 ppm (Liposcelis paeta [22]) was 16.7%, the mortality at 1 ppm (Lepinotus reticulatus [23]) was 94.4% and the inhibition [24] was “inactive”. For the same compound, the mortality at 1 ppm (Liposcelis paeta [25]) was 46.7%, the mortality at 1 ppm (Lepinotus reticulatus [26]) was 94.5% and the mortality at 1 ppm [27] was 45.7%. For the same compound, the inhibition (Lepinotus reticulatus [28]) was “Active”, the mortality at 1 ppm (Lepinotus reticulatus [29]) was 96.7% and the inhibition (Lepinotus reticulatus [30]) was “Active”. The mortality at 1 ppm (Liposcelis paeta [31]) was 37.8%, the mortality at 1 ppm (Liposcelis paeta [32]) was 55.6% and the mortality at 1 ppm (Liposcelis paeta [33]) was 10%.
